Data on nine molecules can be found in US20180116983A1, “COMPOUNDS FOR TREATING DISORDERS ASSOCIATED WITH BK CHANNEL MODULATION” (Canbex Therapeutics Limited, priority 2015, published 2018).

For one series, the target named is T1, KNCMA1 (Sus scrofa, UniProt O18866).
T1 construct: endogenous in cells; host or cells: primary pig aortic endothelial cells
The experiment in a line: Whole-cell current in primary pig aortic endothelial cells. It counts as cell-based. The source says: Pig aortic endothelial cells only express KNCMAI and not KNCMB1-4 (Papassotiriou et al). Thus, the absence of stimulation indicates a lack of effect on KNCMA1.

Series [1] addresses T2, BKCa channels formed by the exon-less alpha subunit (Homo sapiens, UniProt Q12791).
T2 construct: expressed in transfected cells; host or cells: HEK293
The experiment in a line: Whole-cell BKCa current in HEK293 cells expressing the alpha subunit alone. Format: cell-based. Conditions: HEK293.

The test system of series [2] is salicylate-induced tinnitus in rats. Conditions: cited from earlier work.
The next series concerns Fmr1 knockout mouse. Conditions: cited from earlier work.
The target in another series is maxi-K channels (Homo sapiens, UniProt Q12791). Particulars: cited from earlier work.
maxi-K channels, sequence (Q12791 whole entry): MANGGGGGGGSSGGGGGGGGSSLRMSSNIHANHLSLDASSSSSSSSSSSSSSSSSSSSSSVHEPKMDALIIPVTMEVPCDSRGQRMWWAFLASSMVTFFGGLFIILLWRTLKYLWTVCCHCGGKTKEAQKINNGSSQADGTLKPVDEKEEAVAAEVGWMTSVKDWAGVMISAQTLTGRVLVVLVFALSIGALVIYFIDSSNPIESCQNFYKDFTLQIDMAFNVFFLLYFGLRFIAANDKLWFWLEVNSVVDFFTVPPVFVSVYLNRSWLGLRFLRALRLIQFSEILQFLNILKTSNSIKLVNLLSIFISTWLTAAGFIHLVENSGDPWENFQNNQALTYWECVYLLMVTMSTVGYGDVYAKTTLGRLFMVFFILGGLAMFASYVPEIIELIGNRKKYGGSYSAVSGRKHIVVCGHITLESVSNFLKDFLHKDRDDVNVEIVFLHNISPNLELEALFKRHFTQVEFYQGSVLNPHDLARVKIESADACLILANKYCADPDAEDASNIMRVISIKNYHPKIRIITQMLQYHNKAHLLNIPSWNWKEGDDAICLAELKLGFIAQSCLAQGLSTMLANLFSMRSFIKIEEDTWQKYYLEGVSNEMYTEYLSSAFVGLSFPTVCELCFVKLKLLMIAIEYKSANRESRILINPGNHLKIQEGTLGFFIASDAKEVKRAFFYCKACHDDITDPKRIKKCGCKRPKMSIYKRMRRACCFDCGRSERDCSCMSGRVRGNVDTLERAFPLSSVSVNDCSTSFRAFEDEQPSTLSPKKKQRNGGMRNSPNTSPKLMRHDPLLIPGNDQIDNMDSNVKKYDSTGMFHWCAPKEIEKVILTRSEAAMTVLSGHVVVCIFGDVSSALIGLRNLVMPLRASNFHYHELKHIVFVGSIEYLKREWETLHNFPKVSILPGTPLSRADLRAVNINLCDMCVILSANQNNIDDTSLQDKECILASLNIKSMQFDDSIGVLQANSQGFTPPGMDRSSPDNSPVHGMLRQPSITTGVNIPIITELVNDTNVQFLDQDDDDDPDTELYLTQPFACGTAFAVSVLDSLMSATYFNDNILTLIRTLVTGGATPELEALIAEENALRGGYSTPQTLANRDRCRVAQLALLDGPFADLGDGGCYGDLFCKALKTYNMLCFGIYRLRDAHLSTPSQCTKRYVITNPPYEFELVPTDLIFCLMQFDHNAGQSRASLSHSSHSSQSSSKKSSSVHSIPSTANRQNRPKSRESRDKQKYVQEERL
The test system of series [3] is rat models of permanent large-vessel stroke. Particulars: cited from earlier work.
In series [4] the test system is OVA- and HDM-sensitized mice. Conditions: cited from earlier work.
The subject of series [5] is murine ex vivo lung slices. Conditions: cited from earlier work.
For another series, the system named is isolated hearts. Conditions: after cold cardioplegic arrest; cited from earlier work.
Series [6] concerns the target T3, BK channel (Homo sapiens, UniProt Q12791). Also noted: host or cells: human airway smooth muscle (ASM) cells. Conditions: human ASM cells; cited from earlier work.
Target sequence in this assay (Q12791 whole entry): as above
Series [7] has as its system C57BL/6.Fmr1 knockout mice. The experiment in a line: Contextual fear conditioning in Fmr1 knockout mice. Format: in vivo, mouse. Particulars: wildtype mice; 2 mg/kg. Here is the method: Animals: C57BL/6.J. Fmr1-K02 mice, which have a deletion of the promoter and exonl of the Fmr1 gene (Mientjes et al., 2006) and C57BL/6J wild type (WT) were originated from the Jackson laboratory (Ann Harbor, USA). Mice were housed in groups (4-6 per cage) and all animals were provided with ad libitum food and water unless otherwise stated. Mice were maintained on a 12 h light/12 h dark cycle (lights off 19:00 to 7:00) in a temperature-controlled environment (21±1° C.). Testing was conducted in the light phase. Mice were housed in commercial cages and experiments were performed in line with the United Kingdom Animals (Scientific procedures) Act 1986. All experiments were conducted with experimentors blind to genotype and drug treatment. Each experimental group contained 10 animals.
Drug Treatment: VSN16R was dissolved in saline for injection intravenously via a tail vein using 2 mg/kg a 30 g needle in a volume of 0.1 ml. Animals were inspected for differences in coat appearance, to detect whether any piloerection was present. The eye condition (runny eyes or porphyria, ptosis), gait appearance, tremor, tail tone, reactivity to handling was assessed to detect adverse behavioural effect.
Contextual fear conditioning: Animals are trained to expect an electroshock treatment within a defined environment, such that on subsequent presentation of the environment, freezing behaviours are induced. […]

A further series has as its system mesenteric arteries. Particulars: cited from earlier work.
Series [8] deals with T3, BK channel. The experiment in a line: Inside-out patch clamp (single channel) on EA.hy926 cells. Also noted: The human umbilical vein derived endothelial cell line, EA.hy926; endogenous in cells; host or cells: EA.hy926 human endothelial cell line. It counts as cell-based. Conditions: human EA.hy926 cells, calcium dependent. Here is the method: The human umbilical vein derived endothelial cell line, EA.hy926 (Edgell et al., Proc Natl Acad Sci USA. 1983 June; 80(12): 3734-7) at passage >45 was grown in DMEM containing 10% FCS and 1% HAT (5 mM hypoxanthine, 20 μM aminopterin, 0.8 mM thymidine) and cells were maintained in an incubator at 37° C. in 5% CO2 atmosphere. Cells were plated on either 10 mm (for patch-clamp recordings) or 30 mm glass cover slips (for Ca^2+ measurements).
Single-channel recordings were obtained from excised inside-out membrane patches in symmetrical solutions. The pipettes were filled with (in mM) 140 KCl, 10 HEPES, 1 MgCl2, 5 EGTA, 4,931 CaCl2 with pH 7.2 by adding KOH (i.e. 10 μM free Ca^2+, G. Droogmans, Leuven, Belgium; ftp://ftp.cc.kuleuven.ac.be/pub/droodmans/cabuf.zip). Cells were perfused with a standard bath solution containing (in mM) 140 NaCl, 5 KCl, 1.2 MgCl2, 10 HEPES, 10 glucose, 2.4 CaCl2. Following gigaseal formation, bath solution was switched to the following (in mM) 140 KCl, 10 HEPES, 1 MgCl2, 5 EGTA and a desired free Ca^2+ concentration which was adjusted by adding different amounts of CaCl2 calculated by the program CaBuf. pH was adjusted to 7.2 by adding KOH. Membrane currents and potential were recorded using a List EPC7 amplifier (List, Germany) and pClamp (version 8.2, Axon Instruments) software.
Target sequence in this assay (Q12791 1-1178 isoform Q12791-5): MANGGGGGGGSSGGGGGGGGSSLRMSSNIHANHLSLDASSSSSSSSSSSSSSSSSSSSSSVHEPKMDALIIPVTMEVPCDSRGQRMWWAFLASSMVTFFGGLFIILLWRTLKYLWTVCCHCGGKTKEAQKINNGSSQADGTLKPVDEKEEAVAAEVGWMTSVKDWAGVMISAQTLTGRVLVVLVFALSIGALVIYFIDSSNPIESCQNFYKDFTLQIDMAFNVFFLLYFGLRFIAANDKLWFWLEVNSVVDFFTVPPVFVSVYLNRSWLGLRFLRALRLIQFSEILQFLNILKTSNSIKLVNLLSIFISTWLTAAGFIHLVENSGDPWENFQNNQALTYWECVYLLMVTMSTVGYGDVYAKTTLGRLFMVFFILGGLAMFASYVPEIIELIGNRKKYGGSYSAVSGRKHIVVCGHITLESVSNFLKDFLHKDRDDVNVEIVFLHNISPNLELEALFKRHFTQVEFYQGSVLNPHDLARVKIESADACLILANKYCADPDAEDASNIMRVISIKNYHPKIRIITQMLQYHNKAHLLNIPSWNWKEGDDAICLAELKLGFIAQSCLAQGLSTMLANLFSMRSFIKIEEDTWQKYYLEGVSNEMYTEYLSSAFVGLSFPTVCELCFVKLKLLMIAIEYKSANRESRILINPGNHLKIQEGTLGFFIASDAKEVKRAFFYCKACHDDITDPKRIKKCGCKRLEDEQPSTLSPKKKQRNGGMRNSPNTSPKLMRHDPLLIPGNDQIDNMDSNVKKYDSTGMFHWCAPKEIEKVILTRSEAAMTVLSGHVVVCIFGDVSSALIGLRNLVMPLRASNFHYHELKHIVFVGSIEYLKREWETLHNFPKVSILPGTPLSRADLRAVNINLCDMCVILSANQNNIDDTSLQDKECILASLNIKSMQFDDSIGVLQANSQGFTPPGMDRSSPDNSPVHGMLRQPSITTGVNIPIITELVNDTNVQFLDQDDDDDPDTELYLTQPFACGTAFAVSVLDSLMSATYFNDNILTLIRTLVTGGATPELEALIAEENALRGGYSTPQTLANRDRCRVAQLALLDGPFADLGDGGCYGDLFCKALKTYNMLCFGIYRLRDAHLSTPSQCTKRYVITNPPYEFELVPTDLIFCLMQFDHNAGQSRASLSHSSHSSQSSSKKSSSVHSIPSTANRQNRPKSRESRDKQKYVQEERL
Target sequence in this assay (Q86W47 whole entry partner): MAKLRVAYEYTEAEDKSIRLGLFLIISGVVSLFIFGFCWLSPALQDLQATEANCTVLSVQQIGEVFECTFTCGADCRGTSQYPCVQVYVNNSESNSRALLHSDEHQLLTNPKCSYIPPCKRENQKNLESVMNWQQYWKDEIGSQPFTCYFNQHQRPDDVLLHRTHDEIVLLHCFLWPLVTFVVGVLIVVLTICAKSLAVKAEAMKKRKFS

The structures appear in SMILES notation.

T2 sequence (Q12791 1-1178 isoform Q12791-5): as the sequence (Q12791 1-1178 isoform Q12791-5) above
T1 sequence (O18866 whole entry): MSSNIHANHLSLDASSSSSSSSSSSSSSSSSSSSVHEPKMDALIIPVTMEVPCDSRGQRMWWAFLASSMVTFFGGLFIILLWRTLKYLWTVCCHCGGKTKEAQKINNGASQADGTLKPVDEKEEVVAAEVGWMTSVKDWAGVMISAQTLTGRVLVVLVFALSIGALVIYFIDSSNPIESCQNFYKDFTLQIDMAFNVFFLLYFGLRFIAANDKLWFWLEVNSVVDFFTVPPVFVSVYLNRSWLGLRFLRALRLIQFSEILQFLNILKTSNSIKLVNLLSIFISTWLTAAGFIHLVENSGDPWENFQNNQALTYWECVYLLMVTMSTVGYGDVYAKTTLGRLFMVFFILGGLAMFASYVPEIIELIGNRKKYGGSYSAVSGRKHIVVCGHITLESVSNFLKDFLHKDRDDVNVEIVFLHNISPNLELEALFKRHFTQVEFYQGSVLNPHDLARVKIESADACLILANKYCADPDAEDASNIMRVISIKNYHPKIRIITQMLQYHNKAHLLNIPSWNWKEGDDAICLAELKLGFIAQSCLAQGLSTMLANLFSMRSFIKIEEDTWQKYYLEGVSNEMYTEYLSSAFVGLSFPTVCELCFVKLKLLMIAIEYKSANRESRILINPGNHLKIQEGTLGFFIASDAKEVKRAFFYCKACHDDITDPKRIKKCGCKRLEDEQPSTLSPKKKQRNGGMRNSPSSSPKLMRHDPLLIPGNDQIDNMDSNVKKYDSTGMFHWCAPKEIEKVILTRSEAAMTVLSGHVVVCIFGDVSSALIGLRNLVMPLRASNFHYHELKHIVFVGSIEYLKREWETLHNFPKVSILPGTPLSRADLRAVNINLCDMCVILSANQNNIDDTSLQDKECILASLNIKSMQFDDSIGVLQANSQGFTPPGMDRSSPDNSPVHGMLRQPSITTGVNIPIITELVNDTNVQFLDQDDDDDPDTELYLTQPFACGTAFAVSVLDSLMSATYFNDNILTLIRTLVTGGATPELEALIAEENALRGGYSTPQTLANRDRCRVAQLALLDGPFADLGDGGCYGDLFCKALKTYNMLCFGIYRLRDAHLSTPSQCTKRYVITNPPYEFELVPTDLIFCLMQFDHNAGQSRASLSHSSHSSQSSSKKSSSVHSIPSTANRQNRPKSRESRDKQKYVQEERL

As to `Clc1ccccc1C(c1ccccc1)(c1ccccc1)n1cccn1` [TRAM-34, reference compound], at KNCMA1 (IK channel blocker after VSN16R), the “effect on residual current” value was “a minor effect on this residual current”.
Take `CC[N+](CC)(CC)CC` [TEA, reference compound]: the “suppression of BKCa current” value in series [1] (5 mM) is “consistently suppressed the BKCa current”.
`COc1ccc(Cl)cc1[C@]1(F)C(=O)Nc2cc(C(F)(F)F)ccc21` [BMS-204352]: the “behavioural effects of tinnitus” value in series [2] (10 mg/kg) is recorded as “abolished”. Further, in the series with Fmr1 knockout mouse, the FXS-associated phenotypes result is recorded as “could inhibit the FXS-associated phenotypes”. Further, the “opening of maxi-K channels” value at maxi-K channels is “potent, effective and uniquely Ca^2+-sensitive opener”. Besides, in series [3] (administered two hours after onset of occlusion), the cortical neuroprotection entry is “provided significant levels of cortical neuroprotection”. The “blood pressure or cerebral blood flow” value in [3] (rat, in vivo) was “had no effect on blood pressure or cerebral blood flow”.
Turning to `CC(=O)c1c(O)c(C)c(O)c(Cc2c(O)c3c(c(C(=O)/C=C/c4ccccc4)c2O)OC(C)(C)C=C3)c1O` [rottlerin], in series [4] (bronchoalveolar lavage fluid), the “reduction in Th2 cytokines” value is on record as 20-35% and the “reduction in inflammatory cells” value is 35-40%. Moreover, the “reduction of AHR” value in series [4] (intravenous, within 5 minutes, OVA-asthma mice, P<0.01) is on record as 45%. The “methacholine-induced airway hyperreactivity (AHR)” value in series [4] (systemic administration) is “reduces methacholine-induced airway hyperreactivity”. For the same molecule, the “frequency of acetylcholine-induced Ca2+ oscillations” value in [5] was “reduces the frequency of acetylcholine-induced Ca^2+ oscillations”. The “cardiac contractile performance and coronary perfusion” value with isolated hearts was “increases cardiac contractile performance and coronary perfusion”. On BK channel [6], the BK channel activity result was “increases BK channel activity”.
As for `COc1ccc(Cl)cc1[C@@]1(F)C(=O)Nc2cc(C(F)(F)F)ccc21` [R-Maxipost], in [2] (dose not given), the effect on tinnitus entry is “maintained the positive effect on tinnitus”.
In the case of `CC(C)(O)[C@H]1O[C@H]2CC[C@@]3(C)[C@@](O)(CC[C@H]4Cc5c([nH]c6ccccc56)[C@@]43C)C2=CC1=O` [paxilline, (2R,4bS,6aS,12bS,12cR,14aS)-5,6,6a,7,12,12b,12c,13,14,14a-Decahydro-4b-hydroxy-2-(1-hydroxy-1-methylethyl)-12b,12c-dimethyl-2H-pyrano[2″,3″:5′,6′]benz[1′,2′:6,7]indeno[1,2-b]indol-3(4bH)-one, reference compound], the “suppression of BKCa current” value is “suppressed” in [1] (10 μM) and “consistently suppressed the BKCa current” in [1] (10 μM, listed as Paxilline).
As to `CC(CO)NC(=O)c1cccc(/C=C\CCCC(=O)N(C)C)c1` (centres unmarked) [VSN16], the effect on current entry at KNCMA1 (no BK beta chains) is reported as “does not stimulate pig aortic endothelial cells”. Further, the “fear conditioning and digging behaviour in wildtype mice” value in series [7] was “exhibited no-inhibitory effect”. For the same molecule, the “relaxation of mesenteric arteries” value in the series on mesenteric arteries is “relaxed mesenteric arteries in an endothelium-dependent manner”. Further, the “vasorelaxation in the presence of rimonabant, AM 251 or O-1918” value with mesenteric arteries (high concentrations of the antagonists) is on record as “antagonized”.
Turning to `CC(NC(=O)c1cccc(/C=C\CCCC(=O)N(C)C)c1)C(=O)O` [VSN44R, (Z)-(3-(6-(dimethylamino)-6-oxohex-1-en-1-yl)benzoyI)-D-alanine], on BK channel [8], the “activation of the response of the channel” value is listed as “activation of the response of the channel”.
`Nc1ncc(Cc2ccc(Br)cc2)s1` [NS19504, 5-[(4-bromophenyl)methyl]-2-thiazolannine, reference compound]: the “enhancement of BKCa current” value in series [1] (10 μM, steps −40 mV to +70 mV, 200 nM calcium) was “approximately doubled”.
